Among the data in US9029405B2, “5-(biphenyl-4-yl)-3-phenyl-1,2,4-oxadiazolyl derivatives as ligands on the sphingosine 1-phosphate(SIP)receptors” (Merck Serono S.A., priority 2010, dated 2015) are Ki and EC50 values, retold here.

Experiment [1] deals with S1P3 (Homo sapiens, UniProt Q99500). The experiment can be described thus: Receptor binding assay, [33P]sphingosine 1-phosphate competition, membranes of CHO cells expressing S1P3. As for the experimental part:
(§1) Membranes were prepared from CHO cells expressing S1P1 or S1P3 for use in ligand binding studies. Cells were suspended in 50 mM TRIS, pH 7.4, 2 mM EDTA, 250 mM Sucrose (buffer A) and 1× Complete protease inhibitor cocktail (Roche), and disrupted at 4° C. by N2 decompression using a cell disruption bomb (Parr Instrument). Following centrifugation at 1000 RPM for 10 min at 4° C., the supernatant was diluted (2×) in buffer A and centrifuged again at 19000 RPM for 75 min at 4° C. The pellet was then suspended in 10 mM HEPES, pH 7.4, 1 mM EDTA, 250 mM Sucrose (Buffer B), and 1× Complete EDTA-free protease inhibitor cocktail and homogenized using a potter. Membranes were flash frozen in liquid N2 and stored at −80° C.
(§2) [33P]sphingosine 1-phosphate (3000 Ci/mmol; American Radiolabeled Chemicals, Inc.) was added to test compounds in 20% DMSO by competition. Membranes and WGA SPA beads (GE Healthcare) were added to give a final volume of 100 μl in 96-well plates or 50 μl in 384-well plates with assay concentrations of 30 pM or 15 pM [33P]sphingosine 1-phosphate (respectively for S1P1 or S1P3), 50 mM HEPES, pH 7.5, 5 mM MgCl2, 100 mM NaCl, 0.4% fatty acid-free BSA, 1-5 μg/well of proteins in 96-well plates vs 0.6-1 μg/well of proteins in 384-well plates and 100 μg/well of WGA SPA beads in 96-well plates vs 75 μg/well of WGA SPA beads in 384-well plates. Binding was performed for 60 min at RT on a shaker and bound radioactivity was measured on a PerkinElmer 1450 MicroBeta counter. Triplicate samples were averaged and normalized as percentage of inhibition relative to total binding (only DMSO in well) and non specific binding (1000-fold excess of unlabeled S1P). Binding data were analyzed using the GraphPad Prism program or Genedata software.
(§3) The “potency” or the “activity” of the compounds is determined by the Ki values as evaluated in one of the above described binding assay, 96 or 384 well plates.

For experiment [2], the target named is T1, S1P1 (Homo sapiens, UniProt P21453). As to the kind of experiment: Receptor binding assay, [33P]sphingosine 1-phosphate competition, membranes of CHO cells expressing S1P1. As for the experimental part: as §1, §2, §3
Target sequence in this assay (P21453 whole entry, species assumed): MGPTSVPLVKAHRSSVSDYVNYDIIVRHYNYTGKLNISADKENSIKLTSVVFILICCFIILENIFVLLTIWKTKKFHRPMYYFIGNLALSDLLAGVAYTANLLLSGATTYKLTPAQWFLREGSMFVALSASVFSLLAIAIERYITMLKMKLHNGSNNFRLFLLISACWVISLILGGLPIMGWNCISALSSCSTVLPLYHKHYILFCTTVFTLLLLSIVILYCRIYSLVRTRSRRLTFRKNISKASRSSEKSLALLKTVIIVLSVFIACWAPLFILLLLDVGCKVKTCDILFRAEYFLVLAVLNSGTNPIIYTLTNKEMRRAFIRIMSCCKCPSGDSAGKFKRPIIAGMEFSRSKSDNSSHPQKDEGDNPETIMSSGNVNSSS
The target of experiment [3] is T1, S1P1. The experiment can be described thus: S1P1 internalization assay in S1P1-U2OS cells (cell imaging). Conditions: U2OS cells expressing S1P1-EGFP, 384-well format. Further details: host or cells: U2OS (human bone osteosarcoma epithelial cells). Format: cell-based. On the procedure: Cellular Functional Assays: Internalization of Sphinqosine-1-phosphate Receptor 1 (S1P1) in a Human Cell Line (U2OS) in a 384-Well Format Using a Cell Imaging Analysis.
The S1P1 internalization assay was performed in 384 well plates (Corning 384 black with clear bottom 3712) using S1P1-U2OS cells from BioImage (C039A), a human epithelial cell line (Human Bone Osteosarcoma Epithelial Cells). These cells expressed the human S1P1 Receptor fused to the green fluorescent protein (EGFP). A standard CMV promoter (cytomegalovirus promoter) controls the expression of S1P1-EGFP and continuous expression was maintained by addition of geneticin to the culture medium.
S1P1 Receptor desensitization induced the internalization of the membrane-localized S1P-EGFP fusion protein to endosomes, which can be monitored by cell imaging analysis.
The cells are plated in low serum medium (Dulbecco's Modified Eagle Medium (DMEM) with Glutamax-1 and high glucose, 1% Penicillin/Streptomycin, 1% Fetal Calf Serum (FCS), 0.5 mg/ml Geneticin) overnight.
The next day, S1P1-U2OS cells are incubated in 20 μl serum free medium (DMEM with Glutamax-1 and high glucose, 0.1% of fatty-acid free Bovin Serum Albumin (BSA), 10 mM, N′-2-Hydroxyethylpiperazine-N′-2 ethanesulphonic acid (HEPES) 1M) for 2 hours at 37° C./5% CO2. The cells are then treated with 4 μl compounds/agonists (6×/3% DMSO) for a total volume of 24 μl, and plates are incubated for 1 hour at 37° C./5% CO2.
S1P1-U2OS cells are fixed with 25 μl Paraformaldehyde 8% and stained with Hoechst 33345 dye (1:1000) for 20 minutes.
They were then washed 3 times with Phosphate Buffered Saline (PBS) and plates are sealed. The internalization of the receptor S1P1-EGFP is measured on Cellomics by calculating the “spot count per object” (“object” corresponds to nuclear and “spot” corresponds to S1P1-EGFP receptor). Internalization data were observed thanks to vHCS View and analyzed using Genedata® software.
Target sequence in this assay (P21453 whole entry): as the sequence (P21453 whole entry, species assumed) above

Where [4] appears, read: 384 well plate, read-out: S1P3 Binding Ki [M] (384 well plate).
[5] abbreviates: 384 well plate, read-out: S1P1 Binding Ki [M] (384 well plate).
The mark [6] stands for this setting: 96 well plate, read-out: S1P3 Binding Ki [M] (96 well plate).

Structures can show the parent of a compound that is named as a salt. Where two headings read alike, the source gives them in different places. Some results are limits rather than exact numbers.

S1P3, sequence (Q99500 whole entry, species assumed): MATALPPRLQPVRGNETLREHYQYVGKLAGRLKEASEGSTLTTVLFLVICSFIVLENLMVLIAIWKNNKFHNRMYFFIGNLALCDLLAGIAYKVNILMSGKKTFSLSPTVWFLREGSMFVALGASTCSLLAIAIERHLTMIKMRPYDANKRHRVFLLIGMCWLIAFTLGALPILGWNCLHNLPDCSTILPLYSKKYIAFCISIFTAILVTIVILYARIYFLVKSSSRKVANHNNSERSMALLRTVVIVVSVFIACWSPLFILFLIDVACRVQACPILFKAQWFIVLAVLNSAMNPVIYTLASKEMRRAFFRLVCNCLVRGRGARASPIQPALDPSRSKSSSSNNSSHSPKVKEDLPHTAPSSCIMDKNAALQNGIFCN

Regarding `COCc1cc(-c2nc(-c3ccc(C(C)N(C)[C@@H](C)C(=O)O)cc3)no2)ccc1-c1ccccc1C` (stereo partly drawn) [Example 37, N-[1-(4-{5-[2-(methoxymethyl)-2′-methylbiphenyl-4-yl]-1,2,4-oxadiazol-3-yl}phenyl)ethyl]-N-methylalanine], the Ki in experiment [1] (setting [4]) amounted to 3.4e-06 M; in experiment [2] (setting [5]), 1.44e-09 M. In experiment [3], this compound yielded an EC50 of 15.1 nM.

For the compound `Cc1ccccc1-c1ccc(-c2nc(-c3ccc(CN[C@H](C(=O)O)C(C)C)c(F)c3)no2)cc1C(F)(F)F` [Example 47, N-(2-fluoro-4-{5-[2′-methyl-2-(trifluoromethyl)biphenyl-4-yl]-1,2,4-oxadiazol-3-yl}benzyl)valine, hydrochloride salt], the Ki in experiment [1] (setting [4]) came to 1.95e-05 M; in experiment [2] (setting [5]) it was 4.26e-09 M. This compound also registered an EC50 in experiment [3] of 39.1 nM.

With `Cc1ccccc1-c1ccc(-c2nc(-c3ccc(CN(C)[C@H](C)C(=O)O)cc3)no2)cc1C(F)(F)F` [Example 71], the Ki in experiment [1] (setting [6]) came out at 7.01e-07 M; in experiment [1] (setting [4]) it was 7.7e-07 M; in experiment [2] (setting [5]) it was 2e-09 M. Also, in experiment [3], the EC50 was 5.66 nM.

Take `Cc1ccccc1-c1ccc(-c2nc(-c3ccc(CCN[C@@H](C)C(=O)O)cc3)no2)cc1C(F)(F)F` [Example 92]: the results for the Ki in experiment [1] (setting [4]) and in experiment [2] (setting [5]) were 1.24e-06 M and 6.94e-09 M, respectively. Further, in experiment [3], the EC50 is 29.5 nM.

As for `Cc1ccccc1-c1ccc(-c2nc(-c3cccc(CCN[C@@H](C)C(=O)O)c3)no2)cc1C(F)(F)F` [Example 94, (2S)-2-(3-(5-(2′-methyl-2-(trifluoromethyl)biphenyl-4-yl)-1,2,4-oxadiazol-3-yl)phenethylamino)propanoic acid], the inhibition constant (Ki) in experiment [1] (setting [4]) turned out to be 7.4e-08 M; in experiment [2] (96 well plate, read-out: S1P1 Binding Ki [M] (96 well plate)) it was 1.85e-10 M; in experiment [2] (setting [5]) it was 1.01e-09 M. For the same compound, the response in experiment [3] was half-maximal at 2.91 nM (EC50).

For `Cc1ccccc1-c1ccc(-c2nc(-c3ccc(CNC4(C(=O)O)CCC4)cc3)no2)cc1C(F)(F)F` [Example 66], the Ki in experiment [1] (setting [4]) was 9.31e-07 M; in experiment [2] (setting [5]) it was 3.86e-09 M. This compound showed an EC50 in experiment [3] of 27.6 nM.

Consider `CCC(C(=O)O)N(C)Cc1ccc(-c2noc(-c3ccc(-c4ccccc4C)c(C(F)(F)F)c3)n2)cc1F` (stereo not drawn) [Example 1, 2-[(2-fluoro-4-{5-[2′-methyl-2-(trifluoromethyl)biphenyl-4-yl]-1,2,4-oxadiazol-3-yl}benzyl)(methyl)amino]butanoic acid, hydrochloride salt], for which the values for the Ki in experiment [1] (setting [4]) and in experiment [2] (setting [5]) were 1.77e-06 M and 2.81e-09 M, respectively. Also, in experiment [3], a half-maximal effect (EC50) was put at 43.3 nM.

As for `Cc1cc(-c2nc(-c3ccc(C(C)N(C)CC(=O)O)cc3)no2)ccc1-c1ccccc1C(F)(F)F` (stereo not drawn) [Example 14, N-methyl-N-[1-(4-{5-[2-methyl-2′-(trifluoromethyl)biphenyl-4-yl]-1,2,4-oxadiazol-3-yl}phenyl)ethyl]glycine, hydrochloride salt], the Ki in experiment [1] (setting [4]) is more than 2e-05 M; in experiment [2] (setting [5]) it was 4.78e-09 M. Besides, the response in experiment [3] was half-maximal at 86.2 nM (EC50).

For the compound `Cc1ccccc1-c1ccc(-c2nc(-c3cccc(CN[C@H](C)C(=O)O)c3)no2)cc1C(F)(F)F` [Example 82], the Ki in experiment [1] (setting [4]) was 1.17e-07 M; in experiment [2] (setting [5]), 1.01e-09 M. The compound also returned an EC50 in experiment [3] of 25.1 nM.

On to `Cc1ccccc1-c1ccc(-c2nc(-c3ccc(CN(C)C(C)(CO)C(=O)O)cc3)no2)cc1C(F)(F)F` (stereo not drawn) [Example 75], for which the results for the Ki in experiment [1] (setting [4]) and in experiment [2] (setting [5]) were 2.3e-06 M and 5.3e-09 M, respectively. In experiment [3], this compound gave an EC50 of 30.2 nM.

For the compound `Cc1ccccc1-c1ccc(-c2nc(-c3cccc(CNC(C(=O)O)C(C)C)c3)no2)cc1C(F)(F)F` (stereo not drawn) [Example 79], the Ki stood at 3.32e-08 M in experiment [1] (setting [6]), 2.67e-07 M in experiment [1] (setting [4]) and 1.07e-09 M in experiment [2] (setting [5]). Besides, the EC50 in experiment [3] was 15.1 nM.

With `COCc1cc(-c2nc(-c3ccc(CN(C)[C@@H](C)C(=O)O)c(F)c3)no2)ccc1-c1ccccc1C` [Example 44, N-(2-fluoro-4-{5-[2-(methoxymethyl)-2′-methylbiphenyl-4-yl]-1,2,4-oxadiazol-3-yl}benzyl)-N-methylalanine, hydrochloride salt], the Ki in experiment [1] (setting [4]) is 8.69e-07 M; in experiment [2] (setting [5]) it was 1.58e-09 M. Besides, the EC50 in experiment [3] was 6.29 nM.

With `Cc1ccccc1-c1ccc(-c2nc(-c3cc(F)cc(CNC(C)(C)C(=O)O)c3)no2)cc1C(F)(F)F` [Example 46, N-(3-fluoro-5-{5-[2′-methyl-2-(trifluoromethyl)biphenyl-4-yl]-1,2,4-oxadiazol-3-yl}benzyl)-2-methylalanine, hydrochloride salt], the results for the Ki in experiment [1] (setting [4]) and in experiment [2] (setting [5]) were 9.55e-08 M and 7.94e-10 M, respectively. This compound came in with an EC50 in experiment [3] of 9.34 nM.

In the case of `Cc1cc(-c2nc(-c3ccc(CNC(C)(C)C(=O)O)c(F)c3)no2)ccc1-c1ccccc1C(F)(F)F` [Example 48, N-(2-fluoro-4-{5-[2-methyl-2′-(trifluoromethyl)biphenyl-4-yl]-1,2,4-oxadiazol-3-yl}benzyl)-2-methylalanine, hydrochloride salt], the results for the Ki in experiment [1] (setting [4]) and in experiment [2] (setting [5]) were more than 2e-05 M and 4.68e-09 M, respectively. In experiment [3], this compound showed an EC50 of 23.8 nM.

For the compound `Cc1ccccc1-c1ccc(-c2nc(-c3ccc([C@H](C)N[C@@H](C)C(=O)O)cc3)no2)cc1C(F)(F)F` [Example 18, N-[(1S)-1-(4-{5-[2′-methyl-2-(trifluoromethyl)biphenyl-4-yl]-1,2,4-oxadiazol-3-yl}phenyl)ethyl]-L-alanine, hydrochloride salt], the Ki in experiment [1] (setting [4]) was found to be 3.65e-06 M; in experiment [2] (setting [5]) it was 1.03e-08 M. This compound yielded an EC50 in experiment [3] of 116 nM.

Take `Cc1ccccc1-c1ccc(-c2nc(-c3ccc(CN[C@H](C(=O)O)[C@@H](C)O)cc3)no2)cc1C(F)(F)F` [Example 61]: the figures for the Ki in experiment [1] (setting [4]) and in experiment [2] (setting [5]) were 1.15e-06 M and 4.27e-09 M, respectively. Further, the midpoint of the response in experiment [3], the EC50, lay at 23.3 nM.

With `CCN(Cc1ccc(-c2noc(-c3ccc(-c4ccccc4C)c(C(F)(F)F)c3)n2)cc1)[C@H](C)C(=O)O` [Example 90, (R)-2-(Ethyl-{4-[5-(2′-methyl-2-trifluoromethyl-biphenyl-4-yl) [1,2,4]oxadiazol-3-yl]-benzyl}-amino)-propionic acid], the Ki in experiment [1] (setting [4]) was determined as 9.48e-07 M; in experiment [2] (setting [5]), 2.48e-09 M. Further, a half-maximal response in experiment [3] (EC50) required 7.92 nM.

For `Cc1ccccc1-c1ccc(-c2nc(-c3ccc(CCN[C@H](C(=O)O)C(C)C)cc3)no2)cc1C(F)(F)F` [Example 91, (2S)-3-methyl-2-(4-(5-(2′-methyl-2-(trifluoromethyl)biphenyl-4-yl)-1,2,4-oxadiazol-3-yl)phenethylamino)butanoic acid], the Ki in experiment [1] (setting [4]) was 7.36e-06 M; in experiment [2] (setting [5]) it was 8.12e-09 M. This compound had an EC50 in experiment [3] of 34.5 nM.

On to `Cc1ccccc1-c1ccc(-c2nc(-c3ccc(CN(C)[C@H](C(=O)O)C(C)C)c(F)c3)no2)cc1C(F)(F)F` [Example 13, N-(2-fluoro-4-{5-[2′-methyl-2-(trifluoromethyl)biphenyl-4-yl]-1,2,4-oxadiazol-3-yl}benzyl)-N-methylvaline, hydrochloride salt], for which the Ki in experiment [1] (setting [4]) is 1.53e-06 M; in experiment [2] (setting [5]), 5.23e-09 M. This compound also had an EC50 in experiment [3] of 283 nM.
